From US8536231B2, “Methods for treating diabetic foot ulcers” (priority 2011, dated 2013)
Non-standard residues stand in square brackets, D forms with d. Residues, ends and D or L forms follow the SMILES beside them. Nle = CCCC[C@H](N)C(=O)O

Tested on: diabetic foot ulcers
Settings: human, in vivo
Procedure: The study was designed as a randomized, parallel-group, double-blind, placebo-controlled, multi-center trial. After 14-days of best-of-care to evaluate ulcer healing and ensure the wounds were chronic, four-weeks of active treatment were then followed by eight weeks of observation and assessment. The study compared the effects of two concentrations of NorLeu^3-A(1-7) and placebo, measuring both clinical efficacy and safety. Sustained tissue integrity was evaluated for all subjects during a follow-up period lasting 12 weeks after complete wound closure.
Subjects were randomized in a 1:1:1 ratio to one of the three treatment groups: • Group 1: Placebo Vehicle Control without NorLeu^3-A(1-7) (also referred to as “DSC127”) (2% Hydroxyethyl Cellulose (HEC) with 0.1% methyl paraben, 0.02% propyl paraben) • Group 2: 0.03% NorLeu^3-A(1-7) in Vehicle • Group 3: 0.01% NorLeu^3-A(1-7) in Vehicle
The four-week treatment period required daily application of the treatment to the wound site. The first application each week was at the clinic and for the remainder of the week the patient self-administered the treatment.
If wound healing occurred during the treatment or assessment periods a final assessment visit was conducted and the integrity was assessed 4 and 12 weeks later (usually weeks 16 and 24 of the study). […]

CCCC[C@H](NC(=O)[C@H](CCCNC(=N)N)NC(=O)[C@@H](N)CC(=O)O)C(=O)N[C@@H](Cc1ccc(O)cc1)C(=O)N[C@H](C(=O)N[C@@H](Cc1c[nH]cn1)C(=O)N1CCC[C@H]1C(=O)O)[C@@H](C)CC [NorLeu^3-A(1-7), Asp-Arg-Nle-Tyr-Ile-His-Pro] (H-DR[Nle]YIHP-OH; N-terminus and C-terminus assumed) was tested, and the “adverse events associated with treatment” value was “no significant adverse events” and the tolerability was “well-tolerated”.
